Target: T1, reconstituted TmAHAS (MI + MS) (Thermotoga maritima, UniProt Q9WZ18)
T1 sequence (Q9WZ18 1-584): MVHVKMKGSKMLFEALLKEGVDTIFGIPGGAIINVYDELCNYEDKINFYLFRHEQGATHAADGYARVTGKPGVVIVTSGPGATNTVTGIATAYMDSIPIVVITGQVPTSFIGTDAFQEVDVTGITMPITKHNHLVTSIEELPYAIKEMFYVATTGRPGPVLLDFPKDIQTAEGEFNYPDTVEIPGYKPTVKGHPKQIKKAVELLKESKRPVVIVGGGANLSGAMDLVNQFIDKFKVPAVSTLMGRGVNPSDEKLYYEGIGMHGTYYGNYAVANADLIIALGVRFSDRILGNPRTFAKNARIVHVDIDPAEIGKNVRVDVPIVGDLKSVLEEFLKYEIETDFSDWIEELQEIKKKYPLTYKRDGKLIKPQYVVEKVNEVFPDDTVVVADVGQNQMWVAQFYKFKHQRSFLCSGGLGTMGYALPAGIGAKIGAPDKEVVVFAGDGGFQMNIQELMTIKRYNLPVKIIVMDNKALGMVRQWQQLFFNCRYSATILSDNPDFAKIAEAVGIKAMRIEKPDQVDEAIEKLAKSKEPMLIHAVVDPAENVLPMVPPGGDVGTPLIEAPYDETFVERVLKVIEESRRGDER
T1 sequence (Q9WZ19 1-171 partner): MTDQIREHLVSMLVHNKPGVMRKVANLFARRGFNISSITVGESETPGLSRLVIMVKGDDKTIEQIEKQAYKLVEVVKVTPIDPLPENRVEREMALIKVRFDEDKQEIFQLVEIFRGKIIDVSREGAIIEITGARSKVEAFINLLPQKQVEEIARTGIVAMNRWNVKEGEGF
Experiment: acetaldehyde
Format: biochemical
Details: reconstituted catalytic and regulatory subunits; 80 °C, anaerobic

CC(=O)C(=O)O [pyruvate]
acetaldehyde (PDC) and acetolactate (AHAS) production from pyruvate: The reconstitution of the enzyme TmAHAS resulted in considerable and reproducible increase of both PDC

From PMC5613635 (Biochemistry and Biophysics Reports, 2016)
